According to paper PMC7587962, “Evaluation of Cytotoxicity and α-Glucosidase Inhibitory Activity of Amide and Polyamino-Derivatives of Lupane Triterpenoids” (Molecules, 2020):
Like-named read-outs stand apart in the source and are kept apart here.

Legend:
MDA-MB-435 = assay: NCI-60 SRB screen: melanoma MDA-MB-435; assay type: cell-based, human; details: MDA-MB-435
OVCAR-5 = assay: NCI-60 SRB screen: ovarian cancer OVCAR-5; assay type: cell-based, human; details: OVCAR-5
KM12 = assay: NCI-60 SRB screen: colon cancer KM12; assay type: cell-based, human; details: KM12
HL-60(TB) = assay: NCI-60 SRB screen: leukemia HL-60(TB); assay type: cell-based; details: Homo sapiens, 48 h, HL-60(TB)
Prostate cancer subpanel = assay: NCI-60 screen, subpanel Prostate cancer
MDA-MB-231/ATCC = assay: NCI-60 SRB screen: breast cancer MDA-MB-231/ATCC; assay type: cell-based; details: Homo sapiens, 48 h
NCI/ADR-RES = assay: NCI-60 SRB screen: ovarian cancer NCI/ADR-RES; assay type: cell-based, human
T-47D = assay: NCI-60 SRB screen: breast cancer T-47D; assay type: cell-based, human; details: T-47D
A498 = assay: NCI-60 SRB screen: renal cancer A498; assay type: cell-based, human; details: A498
NSCL cancer subpanel = assay: NCI-60 screen, subpanel NSCL cancer
ACHN = assay: NCI-60 SRB screen: renal cancer ACHN; assay type: cell-based, human
EKVX = assay: NCI-60 SRB screen: non-small cell lung cancer EKVX; assay type: cell-based, human
NCI-H23 = assay: NCI-60 SRB screen: non-small cell lung cancer NCI-H23; assay type: cell-based, human; details: NCI-H23
HT29 = assay: NCI-60 SRB screen: colon cancer HT29; assay type: cell-based; details: Homo sapiens, HT29
MOLT-4 = assay: NCI-60 SRB screen: leukemia MOLT-4; assay type: cell-based; details: Homo sapiens, 48 h, MOLT-4
HOP-92 = assay: NCI-60 SRB screen: non-small cell lung cancer HOP-92; assay type: cell-based, human; details: HOP-92
SF-539 = assay: NCI-60 SRB screen: CNS cancer SF-539; assay type: cell-based, human; details: SF-539
K-562 = assay: NCI-60 SRB screen: leukemia K-562; assay type: cell-based, human; details: K-562
Renal Cancer subpanel = assay: NCI-60 screen, subpanel Renal Cancer
BT-549 = assay: NCI-60 SRB screen: breast cancer BT-549; assay type: cell-based, human; details: BT-549
Colon Cancer subpanel = assay: NCI-60 screen, subpanel Colon Cancer
Melanoma subpanel = assay: NCI-60 screen, subpanel Melanoma
OVCAR-3 = assay: NCI-60 SRB screen: ovarian cancer OVCAR-3; assay type: cell-based, human; details: OVCAR-3
UACC-257 = assay: NCI-60 SRB screen: melanoma UACC-257; assay type: cell-based, human; details: UACC-257
Breast cancer subpanel = assay: NCI-60 screen, subpanel Breast cancer
CAKI-1 = assay: NCI-60 SRB screen: renal cancer CAKI-1; assay type: cell-based, human; details: CAKI-1
PC-3 = assay: NCI-60 SRB screen: prostate cancer PC-3; assay type: cell-based, human; details: PC-3
NCI-H460 = assay: NCI-60 SRB screen: non-small cell lung cancer NCI-H460; assay type: cell-based; details: Homo sapiens, 48 h, NCI-H460
NCI-H322M = assay: NCI-60 SRB screen: non-small cell lung cancer NCI-H322M; assay type: cell-based, human
MALME-3M = assay: NCI-60 SRB screen: melanoma MALME-3M; assay type: cell-based, human; details: MALME-3M
SK-OV-3 = assay: NCI-60 SRB screen: ovarian cancer SK-OV-3; assay type: cell-based, human; details: SK-OV-3
[1] = system: 60 human tumor cell lines; assay: cells
RXF 393 = assay: NCI-60 SRB screen: renal cancer RXF 393; assay type: cell-based, human; details: RXF 393
Leukemia subpanel = assay: NCI-60 screen, subpanel Leukemia
COLO 205 = assay: NCI-60 SRB screen: colon cancer COLO 205; assay type: cell-based, human; details: COLO 205
[2] = Homo sapiens, five concentrations, 48 h, SRB, read-out: GI50
[3] = single dose 10 µM, read-out: Percentage Cell Growth
[4] = five concentrations, SRB, read-out: GI50

## CC(=O)OCC12CCC(C(C)C(N)=O)C1C1CCC3C4(C)CCC(OC(C)=O)C(C)(C)C4CCC3(C)C1(C)CC2 [Compound 4, 3β,28-Diacetyloxy-(20R)-29-amino-29-oxolupane]
MDA-MB-435; [2]
  GI50: 5.23 µM
MDA-MB-435; single dose 10 µM
  Percentage Cell Growth: −63.78%
OVCAR-5; [2]
  GI50: 14.4 µM
OVCAR-5; single dose 10 µM
  Percentage Cell Growth: −77.37%
KM12; [2]
  GI50: 3.86 µM
KM12; single dose 10 µM
  Percentage Cell Growth: −62.05%
HL-60(TB); [3]
  activity at 10 µM: -23.1%
HL-60(TB); [4]
  GI50: 2.76 µM
Prostate cancer subpanel
  MID b, average sensitivity of all cell line of particular subpanel: 6.31 µM
  Selectivity, ratio MID a: MID b: 1.25
MDA-MB-231/ATCC; MDA-MB-231/ATCC, single dose 10 µM, read-out: Percentage Cell Growth
  activity at 10 µM: -88.6%
MDA-MB-231/ATCC; MDA-MB-231, MDA-MB-31/ATCC, five concentrations, SRB, read-out: GI50
  GI50: 11.8 µM
NCI/ADR-RES; [2]
  GI50: 7.74 µM
NCI/ADR-RES; single dose 10 µM
  Percentage Cell Growth: −57.29%
T-47D; Homo sapiens, T47D, five concentrations, 48 h, SRB, read-out: GI50
  GI50: 2.91 µM
T-47D; single dose 10 µM
  Percentage Cell Growth: −8.82%
A498; single dose 10 µM
  Percentage Cell Growth: −81.70%
A498; [2]
  GI50: 12.8 µM
NSCL cancer subpanel
  MID b, average sensitivity of all cell line of particular subpanel: 7.50 µM
  Selectivity, ratio MID a: MID b: 1.05
ACHN; [2]
  GI50: 5.78 µM
ACHN; single dose 10 µM
  Percentage Cell Growth: −75.68%
EKVX; [2]
  GI50: 9.28 µM
EKVX; single dose 10 µM
  Percentage Cell Growth: −25.21%
NCI-H23; [2]
  GI50: 9.42 µM
NCI-H23; single dose 10 µM
  Percentage Cell Growth: −40.35%
HT29; HT-29, 48 h, single dose 10 µM, read-out: Percentage Cell Growth
  activity at 10 µM: -77.7%
HT29; HT-29, five concentrations, 48 h, SRB, read-out: GI50
  GI50: 3.73 µM
MOLT-4; [3]
  activity at 10 µM: -29.1%
MOLT-4; [4]
  GI50: 3.29 µM
HOP-92; single dose 10 µM
  Percentage Cell Growth: −83.15%
HOP-92; [2]
  GI50: 5.21 µM
SF-539; [2]
  GI50: 5.52 µM
SF-539; single dose 10 µM
  Percentage Cell Growth: −83.91%
K-562; Homo sapiens, K562, five concentrations, 48 h, SRB, read-out: GI50
  GI50: 4.09 µM
K-562; single dose 10 µM
  Percentage Cell Growth: 3.10%
Renal Cancer subpanel
  MID b, average sensitivity of all cell line of particular subpanel: 8.12 µM
  Selectivity, ratio MID a: MID b: 0.97
BT-549; single dose 10 µM
  Percentage Cell Growth: −55.13%
BT-549; [2]
  GI50: 8.17 µM
Colon Cancer subpanel
  MID b, average sensitivity of all cell line of particular subpanel: 5.37 µM
  Selectivity, ratio MID a: MID b: 1.47
Melanoma subpanel
  MID b, average sensitivity of all cell line of particular subpanel: 7.80 µM
  Selectivity, ratio MID a: MID b: 1.01
OVCAR-3; [2]
  GI50: 3.95 µM
OVCAR-3; single dose 10 µM
  Percentage Cell Growth: −76.19%
UACC-257; [2]
  GI50: 4.83 µM
UACC-257; single dose 10 µM
  Percentage Cell Growth: −46.24%
Breast cancer subpanel
  MID b, average sensitivity of all cell line of particular subpanel: 7.09 µM
  Selectivity, ratio MID a: MID b: 1.11
CAKI-1; single dose 10 µM
  Percentage Cell Growth: −45.80%
CAKI-1; [2]
  GI50: 3.24 µM
PC-3; [2]
  GI50: 2.67 µM
PC-3; single dose 10 µM
  Percentage Cell Growth: −47.42%
NCI-H460; [3]
  activity at 10 µM: -61.8%
NCI-H460; [4]
  GI50: 13.4 µM
NCI-H322M; [2]
  GI50: 13 µM
NCI-H322M; single dose 10 µM
  Percentage Cell Growth: −78.19%
MALME-3M; [2]
  GI50: 10.5 µM
MALME-3M; single dose 10 µM
  Percentage Cell Growth: −88.97%
SK-OV-3; [2]
  GI50: 13.4 µM
SK-OV-3; single dose 10 µM
  Percentage Cell Growth: −11.89%
[1]; read-out: GI50 ranges against all panels of NCI60
  GI50: 1.1 to 54.4 µM
[1]; read-out: MID a, average sensitivity of all cell line (GI50-MID)
  GI50: 7.87 µM
RXF 393; [2]
  GI50: 4.28 µM
RXF 393; single dose 10 µM
  Percentage Cell Growth: −64.94%
Leukemia subpanel
  MID b, average sensitivity of all cell line of particular subpanel: 3.55 µM
  Selectivity, ratio MID a: MID b: 2.22
COLO 205; single dose 10 µM
  Percentage Cell Growth: −52.98%
COLO 205; [2]
  GI50: 4.31 µM
